Molecules are shown by their SMILES. Bridge positions count the residues as written; N and C are the ends. Square brackets hold non-standard residues; d marks the D form. Peptide text beside a SMILES is read from it. R8 = C=CCCCCCC[C@@](C)(N)C(=O)O; S5 = C=CCCC[C@](C)(N)C(=O)O; Nle = CCCC[C@H](N)C(=O)O

Test [1] has as its system HRE-bla ME-180 cells. The test can be described thus: Reporter gene assay (HRE-bla ME-180 HIF reporter, GeneBLAzer). In kind it is cell-based, human. Conditions: for EC50: 24 hour normoxia. In outline: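 A FRET β-lactamase readout of HIF transcription was used. After compound treatment in 0.3% DMSO/media under normoxic conditions, 20 μl of 6× LiveBLAzer-FRET B/G (CCF4-AM) substrate was added. Plates sat 3 hr at room temperature in the dark and were read at 409 Ex/460Em and 409Ex/530Em on a Synergy 2. Inhibition was compared against DMSO vehicle controls, with chetomin as positive control.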
Background: In a reporter assay the amount or activity of a reporter protein is the signal.

Test [2] has as its system HRE-bla ME-180 cells. As to the kind of experiment: Cell proliferation assay (viability, MTT, 1% FBS). In kind it is cell-based, human. Summed up:
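Viable cell number was measured with the CellTiter 96 (MTT) kit after compounds were applied for a 16 h normoxic (21% O2) pretreatment, followed by further normoxic or hypoxic (1% O2) culture. Cells: 2×10^4 ME-180 per well, Opti-MEM + 1% FBS, 0.5% DMSO vehicle.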

Test [3] has as its target T1, flag-tagged HIF1α (AA 786-826) / His6-tagged p300 (AA 323-423) complex (Homo sapiens, UniProt Q09472).
T1 construct: His6-tagged p300 (AA 323-423); made in house; host or cells: E. coli (pETDuet vector)
As to the kind of experiment: HIF1α p300 displacement assay (TR FRET, +CHAPS). In kind it is binding. Conditions: read-out: IC50 (nM) (HIF1α_p300 Displacement + CHAPS). Summed up:
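In this TR-FRET displacement format, peptides compete HIF1α C-terminal transactivation domain off p300-CH. They were preincubated 1 h at room temperature with 300 nM complex in HEPES pH 7.4/NaCl buffer with 7.5 mM CHAPS and 1 mM DTT. Anti-His-D2 (4 nM) and anti-Flag-K (0.5 μM) followed for 2 h, and a one-site fit of the fluorescence ratio gave IC50.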
Background: Time-resolved FRET reads energy transfer from a long-lived donor to a nearby acceptor.

On to `CC[C@H](C)[C@H](NC(=O)[C@H](CCCNC(=N)N)NC(=O)[C@H](CC(=O)O)NC(=O)[C@H](CC(C)C)NC(=O)[C@H](C)NC(=O)[C@H](CCSC)NC(=O)[C@]1(C)CCCC=CCCC[C@](C)(NC(=O)[C@H](CCSC)NC(=O)[C@H](CC(C)C)NC(=O)[C@@H](NC(=O)[C@H](CCCCN)NC(=O)[C@H](CCC(=O)O)NC(=O)[C@H](CC(=O)O)NC(=O)[C@@H](NC(=O)[C@H](Cc2ccccc2)NC(C)=O)[C@@H](C)CC)C(C)C)C(=O)N[C@@H](CC(C)C)C(=O)N[C@@H](C(C)C)C(=O)N[C@@H]([C@@H](C)CC)C(=O)N1)C(N)=O` [SP-283] (Ac-FIDEKVLM[S5]LVI[S5]MALDRI-NH2; staple 9-13), for which, in test [1], the “18 h Avg % max inhibition at top conc (HIF Rptr-24 hrs normoxia) (μM)” value (“18 h Avg % max inhibition at top conc” for short) is recorded as “+++ (≤25 but <50: +++)” and the EC50 – broadly, the midpoint of the concentration-response curve – is over 30 µM. The “Viability 1% FBS AVG (MTT V3-24 hr Normoxia) (μM)” value (from here on “Viability 1% FBS AVG”) in test [2] is listed as “++++ (≥30: ++++)”. For the same molecule, in test [3], the IC50 (usually the concentration needed to halve the response being measured) is over 700 nM.
On the same counts, the results for `CC[C@H](C)[C@H](NC(=O)[C@H](CCCNC(=N)N)NC(=O)[C@H](CC(=O)O)NC(=O)[C@H](CC(C)C)NC(=O)[C@H](C)NC(=O)[C@H](CCSC)NC(=O)[C@]1(C)CCCC=CCCC[C@](C)(NC(=O)[C@H](CCSC)NC(=O)[C@H](CC(C)C)NC(=O)[C@@H](NC(=O)[C@H](Cc2c[nH]cn2)NC(=O)[C@H](CCC(=O)O)NC(=O)[C@H](CC(=O)O)NC(=O)[C@@H](NC(=O)[C@H](Cc2ccccc2)NC(C)=O)[C@@H](C)CC)C(C)C)C(=O)N[C@@H](CC(C)C)C(=O)N[C@@H](C(C)C)C(=O)N[C@@H]([C@@H](C)CC)C(=O)N1)C(N)=O` [SP-284] (Ac-FIDEHVLM[S5]LVI[S5]MALDRI-NH2; staple 9-13) are “+++ (≤25 but <50: +++)”, 5 to 15 µM, “++++ (≥30: ++++)” and 400 to 700 nM.
For the molecule `CC[C@H](C)[C@H](NC(=O)[C@H](CCCNC(=N)N)NC(=O)[C@H](CC(=O)O)NC(=O)[C@H](CC(C)C)NC(=O)[C@H](C)NC(=O)[C@H](CCSC)NC(=O)[C@]1(C)CCCC=CCCC[C@](C)(NC(=O)[C@H](CCSC)NC(=O)[C@H](CC(C)C)NC(=O)[C@@H](NC(=O)[C@H](CCCCN)NC(=O)[C@H](CCC(=O)O)NC(=O)[C@H](CC(N)=O)NC(=O)[C@@H](NC(=O)[C@H](Cc2ccccc2)NC(C)=O)[C@@H](C)CC)C(C)C)C(=O)N[C@@H](CC(C)C)C(=O)N[C@@H](C(C)C)C(=O)N[C@@H]([C@@H](C)CC)C(=O)N1)C(N)=O` [SP-285] (Ac-FINEKVLM[S5]LVI[S5]MALDRI-NH2; staple 9-13), in test [1], the “18 h Avg % max inhibition at top conc” value was “+++ (≤25 but <50: +++)” and the EC50 was over 30 µM. The “Viability 1% FBS AVG” value in test [2] is on record as “++++ (≥30: ++++)”. In addition, the half-inhibitory concentration (IC50) in test [3] was over 700 nM.
With `CC[C@H](C)[C@H](NC(=O)[C@H](CCCNC(=N)N)NC(=O)[C@H](CC(=O)O)NC(=O)[C@H](CC(C)C)NC(=O)[C@H](C)NC(=O)[C@H](CCSC)NC(=O)[C@]1(C)CCCC=CCCC[C@](C)(NC(=O)[C@H](CCSC)NC(=O)[C@H](CC(C)C)NC(=O)[C@@H](NC(=O)[C@H](Cc2c[nH]cn2)NC(=O)[C@H](CCC(=O)O)NC(=O)[C@H](CC(N)=O)NC(=O)[C@@H](NC(=O)[C@H](Cc2ccccc2)NC(C)=O)[C@@H](C)CC)C(C)C)C(=O)N[C@@H](CC(C)C)C(=O)N[C@@H](C(C)C)C(=O)N[C@@H]([C@@H](C)CC)C(=O)N1)C(N)=O` [SP-286] (Ac-FINEHVLM[S5]LVI[S5]MALDRI-NH2; staple 9-13), in test [1], the “18 h Avg % max inhibition at top conc” value was “++ (≤10 but <25: ++)” and the EC50 was over 30 µM. Further, in test [2], the “Viability 1% FBS AVG” value was “++++ (≥30: ++++)”. The 50% inhibitory concentration (IC50) in test [3] is over 700 nM.
Consider `CC[C@H](C)[C@H](NC(=O)[C@H](Cc1ccccc1)NC(C)=O)C(=O)N[C@@H](CC(=O)O)C(=O)N[C@@H](CCC(=O)O)C(=O)N[C@@H](CCC(=O)O)C(=O)N[C@H](C(=O)N[C@@H](CC(C)C)C(=O)N[C@@H](CCSC)C(=O)N[C@@]1(C)CCCC=CCCC[C@@](C)(C(=O)N[C@@H](CCSC)C(=O)N[C@@H](C)C(=O)N[C@@H](CC(C)C)C(=O)N[C@@H](CO)C(=O)N[C@@H](CCCNC(=N)N)C(N)=O)NC(=O)[C@H]([C@@H](C)CC)NC(=O)[C@H](C(C)C)NC(=O)[C@H](CC(C)C)NC1=O)C(C)C` [SP-287] (Ac-FIDEEVLM[S5]LVI[S5]MALSR-NH2; staple 9-13), for which, in test [1], the “18 h Avg % max inhibition at top conc” value is “++++ (≥50: ++++)” and the EC50 lay within 5 to 15 µM. In test [2], the “Viability 1% FBS AVG” value was “++++ (≥30: ++++)”. Besides, the IC50 in test [3] is over 700 nM.
As to `CC[C@H](C)[C@H](NC(=O)[C@H](Cc1ccccc1)NC(C)=O)C(=O)N[C@@H](CC(N)=O)C(=O)N[C@@H](CCC(=O)O)C(=O)N[C@@H](CCCCN)C(=O)N[C@H](C(=O)N[C@@H](CC(C)C)C(=O)N[C@@H](CCSC)C(=O)N[C@@]1(C)CCCC=CCCC[C@@](C)(C(=O)N[C@@H](CCSC)C(=O)N[C@@H](C)C(=O)N[C@@H](CC(C)C)C(=O)N[C@@H](CO)C(=O)N[C@@H](CCCNC(=N)N)C(N)=O)NC(=O)[C@H]([C@@H](C)CC)NC(=O)[C@H](C(C)C)NC(=O)[C@H](CC(C)C)NC1=O)C(C)C` [SP-288] (Ac-FINEKVLM[S5]LVI[S5]MALSR-NH2; staple 9-13), in test [1], the “18 h Avg % max inhibition at top conc” value is listed as “+ (<10: +)” and the 50% effective concentration (EC50) was over 30 µM. Further, the “Viability 1% FBS AVG” value in test [2] is “++++ (≥30: ++++)”. The concentration for half-maximal inhibition (IC50) in test [3] is over 700 nM.
Regarding `CCCC[C@H](NC(=O)[C@H](CCC(=O)O)NC(=O)[C@@H](NC(=O)[C@]1(C)CCCC=CCCC[C@](C)(NC(=O)[C@@H](NC(=O)[C@H](CCC(=O)O)NC(=O)[C@H](CCC(=O)O)NC(=O)[C@H](CC(=O)O)NC(=O)[C@@H](NC(=O)[C@H](CC(N)=O)NC(=O)[C@@H](NC(=O)[C@]2(C)CCCC=CCCCCCC[C@@](C)(NC(=O)[C@H](CCC(=O)O)NC(=O)CNC(=O)[C@H](CCC(N)=O)NC(=O)[C@H](CC(C)C)NC(=O)[C@H](CC(C)C)NC(C)=O)C(=O)N[C@@H](CC(C)C)C(=O)N[C@@H](CC(C)C)C(=O)N[C@@H](CCCNC(=N)N)C(=O)N[C@@H](C)C(=O)N[C@@H](CC(C)C)C(=O)N[C@@H](CC(=O)O)C(=O)N2)C(C)C)[C@@H](C)CC)C(C)C)C(=O)N[C@@H](CCCC)C(=O)N[C@@H](CO)C(=O)N[C@@H](CC(C)C)C(=O)N1)[C@@H](C)CC)C(=O)NCC(N)=O` [SP-305] (Ac-LLQGE[R8]LLRALD[S5]VNIDEEV[S5][Nle]SL[S5]IE[Nle]G-NH2; staple 6-13, 21-25), in test [1], the “18 h Avg % max inhibition at top conc” value is listed as “++++ (≥50: ++++)” and the EC50 is over 30 µM. Further, in test [2], the “Viability 1% FBS AVG” value was “++++ (≥30: ++++)”. For the same molecule, the IC50 in test [3] was at most 200 nM.
On the same counts, the results for `CCCC[C@H](NC(=O)[C@H](CC(C)C)NC(=O)[C@@H](NC(=O)[C@H](CCC(=O)O)NC(=O)[C@H](CCC(=O)O)NC(=O)[C@H](CC(=O)O)NC(=O)[C@@H](NC(=O)[C@H](CC(N)=O)NC(=O)[C@@H](NC(=O)[C@H](CCC(N)=O)NC(=O)[C@H](CC(=O)O)NC(=O)[C@H](CC(C)C)NC(=O)[C@H](C)NC(=O)[C@H](CCCNC(=N)N)NC(=O)[C@]1(C)CCCC=CCCC[C@](C)(NC(=O)[C@H](CCC(N)=O)NC(=O)[C@H](CC(C)C)NC(=O)[C@H](CC(C)C)NC(C)=O)C(=O)N[C@@H](CCC(=O)O)C(=O)N[C@@H](CCC(=O)O)C(=O)N[C@@H](CC(C)C)C(=O)N1)C(C)C)[C@@H](C)CC)C(C)C)C(=O)N[C@@]1(C)CCCC=CCCC[C@@](C)(C(=O)N[C@@H](CCCC)C(=O)NCC(N)=O)NC(=O)[C@H]([C@@H](C)CC)NC(=O)[C@H](C(C)C)NC(=O)[C@H](CC(C)C)NC1=O` [SP-306] (Ac-LLQ[S5]EEL[S5]RALDQVNIDEEVL[Nle][S5]LVI[S5][Nle]G-NH2; staple 4-8, 23-27) are “+++ (≤25 but <50: +++)”, over 30 µM, “++++ (≥30: ++++)” and at most 200 nM.
`CCCC[C@H](NC(=O)[C@H](CC(C)C)NC(=O)[C@@H](NC(=O)[C@H](CCC(=O)O)NC(=O)[C@H](CCC(=O)O)NC(=O)[C@H](CC(=O)O)NC(=O)[C@@H](NC(=O)[C@H](CC(N)=O)NC(=O)[C@@H](NC(=O)[C@H](CCC(N)=O)NC(=O)[C@H](CC(=O)O)NC(=O)[C@H](CC(C)C)NC(=O)[C@]1(C)CCCC=CCCC[C@](C)(NC(=O)[C@H](CCC(=O)O)NC(=O)CNC(=O)[C@H](CCC(N)=O)NC(=O)[C@H](CC(C)C)NC(=O)[C@H](CC(C)C)NC(C)=O)C(=O)N[C@@H](CC(C)C)C(=O)N[C@@H](CC(C)C)C(=O)N[C@@H](CCCNC(=N)N)C(=O)N1)C(C)C)[C@@H](C)CC)C(C)C)C(=O)N[C@@]1(C)CCCC=CCCC[C@@](C)(C(=O)N[C@@H](CCCC)C(=O)NCC(N)=O)NC(=O)[C@H]([C@@H](C)CC)NC(=O)[C@H](C(C)C)NC(=O)[C@H](CC(C)C)NC1=O` [SP-307] (Ac-LLQGE[S5]LLR[S5]LDQVNIDEEVL[Nle][S5]LVI[S5][Nle]G-NH2; staple 6-10, 23-27): in test [1], the “18 h Avg % max inhibition at top conc” value is on record as “+++ (≤25 but <50: +++)” and the 50% effective concentration (EC50) is over 30 µM. Also, the “Viability 1% FBS AVG” value in test [2] is recorded as “++++ (≥30: ++++)”. In addition, the IC50 in test [3] was over 700 nM.
